Test results: ChEMBL document CHEMBL1136035, “New Rev-transport inhibitor with anti-HIV activity from Valerianae Radix” (2002)

Test system: MT4
Experiment: Antiviral activity was determined by measurement of HIV-p24 antigen production in the supernatants of the infected MT-4 cell cultures with acommercially available HIV-antigen kit.
Type: functional, Homo sapiens

CC(=O)OCC1=CO[C@@H](OC(=O)CC(C)C)[C@H]2C1=C[C@H](OC(=O)CC(C)C)[C@]21CO1 [VALTRATE]
Inhibition: 44%
